Assay results: BindingDB's records for doi:10.7270/Q29P301W (University of Pittsburgh, 2006)

molecular target: T1, Dual specificity protein phosphatase 6 (Rattus norvegicus, UniProt Q64346); experiment: Confirmatory specificity testing of DUSP6 inhibitors, biochemical, cell-free, concentration series (AID 452)
T1 sequence (Q64346 whole entry): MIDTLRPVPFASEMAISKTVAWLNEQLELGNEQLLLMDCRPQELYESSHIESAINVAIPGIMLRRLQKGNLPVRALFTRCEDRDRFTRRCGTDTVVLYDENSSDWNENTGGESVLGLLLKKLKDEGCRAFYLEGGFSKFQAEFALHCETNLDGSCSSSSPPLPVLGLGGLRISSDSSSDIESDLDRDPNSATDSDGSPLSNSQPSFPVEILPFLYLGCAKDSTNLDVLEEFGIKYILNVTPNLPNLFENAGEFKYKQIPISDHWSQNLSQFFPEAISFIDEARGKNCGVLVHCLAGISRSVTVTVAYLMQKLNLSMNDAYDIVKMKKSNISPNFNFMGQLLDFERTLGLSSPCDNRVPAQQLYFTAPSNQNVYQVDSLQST

SMILES | IC50 [µM]
Cc1ccc2c(c1C)NC(C(=O)O)C1CC=CC21 (stereo not given) | > 50
CCn1nc(-c2ccccc2)nc2c(=O)n(C)c(=O)nc1-2 [1-Ethyl-6-methyl-3-phenyl-1H-pyrimido[5,4-e][1,2,4]triazine-5,7-dione] | 0.159
CCCCC[C@H](O)C=C[C@H]1C=CC(=O)[C@@H]1C/C=C\CCCC(=O)O [(Z)-7-[(1R,5S)-2-oxidanylidene-5-[(E,3S)-3-oxidanyloct-1-enyl]cyclopent-3-en-1-yl]hept-5-enoic acid] | > 50

Further lines, results first:

IC50 [µM] | SMILES
> 50 | CC(C)Cn1c(N)c(C(=O)COC(=O)c2cc(-c3ccco3)nc3ccccc23)c(=O)n(C)c1=O [2-(2-furanyl)-4-quinolinecarboxylic acid [2-[4-amino-1-methyl-3-(2-methylpropyl)-2,6-dioxo-5-pyrimidinyl]-2-oxoethyl] ester]
41.2 | COc1ccc(Cn2c(C)nc3c(c2=O)c2nc4ccccc4nc2n3Cc2ccco2)cc1 [MLS000079944]
